{
  "source": "paper PMC2246472",
  "about": "“Bombesin and bombesin antagonists: studies in Swiss 3T3 cells and human small cell lung cancer” (British Journal of Cancer, 1988)",
  "key": {"bombesin/GRP receptor": {"biological_target": "T1, bombesin/GRP receptor (Mus musculus, UniProt P21729)", "T1 construct": "endogenous in cells; host or cells: Swiss 3T3 murine fibroblasts (intact, quiescent/confluent)", "T1 sequence (P21729 whole entry)": "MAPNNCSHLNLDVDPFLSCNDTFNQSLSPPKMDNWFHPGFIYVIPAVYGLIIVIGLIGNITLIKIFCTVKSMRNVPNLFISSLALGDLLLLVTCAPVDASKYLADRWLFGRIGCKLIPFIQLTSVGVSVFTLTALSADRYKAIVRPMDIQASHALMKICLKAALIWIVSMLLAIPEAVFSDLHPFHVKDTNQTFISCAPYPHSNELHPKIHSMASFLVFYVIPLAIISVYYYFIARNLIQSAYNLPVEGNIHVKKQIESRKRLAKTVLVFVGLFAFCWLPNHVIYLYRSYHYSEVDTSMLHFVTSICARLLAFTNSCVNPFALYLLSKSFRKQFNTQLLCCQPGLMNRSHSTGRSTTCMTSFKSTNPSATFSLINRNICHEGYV", "details": "Swiss 3T3 cells; ref Zachary & Rozengurt, 1985a; cited from earlier work", "description": "Br. J. Cancer (1988), 57, 579-586 ? The Macmillan Press Ltd., 1988 Bombesin and bombesin antagonists: Studies in Swiss 3T3 cells and human small cell lung cancer* P.J. Woll & E. Rozengurt Imperial Cancer Research Fund, PO Box 123, Lincoln's Inn Fields, London WC2A 3PX, UK."}, "H69 SCLC cell line": {"system": "H69 SCLC cell line", "test": "Growth of H69 SCLC cell line in serum-free HITES medium (Coulter counter)", "format": "cell-based, human", "details": "peptide A at 150 pM (so in the source), HITES medium + 0.25% bovine serum albumin, inoculum 5 x 10^4 cells, mean of 3; restored by washing; Figure 3 left"}, "Swiss 3T3 cells [1]": {"system": "Swiss 3T3 cells", "details": "ref Zachary & Rozengurt, 1985a; cited from earlier work", "description": "(§1) Br. J. Cancer (1988), 57, 579-586 ? The Macmillan Press Ltd., 1988 Bombesin and bombesin antagonists: Studies in Swiss 3T3 cells and human small cell lung cancer* P.J. Woll & E. Rozengurt Imperial Cancer Research Fund, PO Box 123, Lincoln's Inn Fields, London WC2A 3PX, UK. Summary Bombesins are potent growth factors for murine Swiss 3T3 cells. Using these cells in chemically defined conditions we have been able to characterise the bombesin receptor and the early signals preceding DNA synthesis. We describe two substance P analogues [DArg1, DPro2, DTrp7 9, Leu1 ] substance P and [DArg1, DPhe5, ..."}, "[2]": {"system": "c-fos and c-myc expression", "details": "Swiss 3T3 cells; ref Rozengurt & Sinnett-Smith, 1987; cited from earlier work", "description": "as §1"}, "Na+/K+ pump": {"system": "Na+/K+ pump", "details": "Swiss 3T3 cells; ref Mendoza et al., 1986; cited from earlier work", "description": "as §1"}, "[3]": {"system": "protein kinase C (80K phosphorylation)", "details": "Swiss 3T3 cells; ref Zachary et al., 1986; cited from earlier work", "description": "as §1"}, "[4]": {"system": "GRP-stimulated mitogenesis in Swiss 3T3 cells", "details": "ref Zachary & Rozengurt, 1985a; cited from earlier work", "description": "as §1"}, "EGF receptor": {"system": "EGF receptor", "details": "Swiss 3T3 cells; ref Zachary et al., 1986; cited from earlier work", "description": "as §1"}, "Ca2+ mobilization": {"system": "Ca2+ mobilization", "details": "Swiss 3T3 cells; ref Mendoza et al., 1986; cited from earlier work", "description": "as §1"}, "[5]": {"system": "vasopressin-stimulated DNA synthesis in Swiss 3T3 cells", "details": "ref Zachary & Rozengurt, 1986, Corps et al., 1985; cited from earlier work", "description": "as §1"}, "[6]": {"biological_target": "T2, Mr 75,000-85,000 protein component of the bombesin/GRP receptor (Mus musculus, UniProt P21729)", "T2 construct": "endogenous in cells; host or cells: Swiss 3T3 murine fibroblasts (intact, quiescent/confluent)", "T2 sequence (P21729 whole entry)": "as above", "details": "Swiss 3T3 cells; ref Zachary & Rozengurt, 1987a; cited from earlier work", "description": "as §1"}, "pancreatic acinar cells": {"system": "pancreatic acinar cells", "details": "ref Jensen et al., 1984; cited from earlier work"}, "Swiss 3T3 cells [7]": {"system": "Swiss 3T3 cells", "set-up": "method as in 2 sources, one per row (each row's own in cited_ref): ref Rozengurt & Sinnett-Smith, 1983 ||| ref Zachary & Rozengurt, 1985a", "details": "serum-free medium, cited from earlier work"}},
  "note": "Like-named read-outs stand apart in the source and are kept apart here.",
  "data": [
    {"compound": "CCCC(=O)O[C@@H]1[C@@H](C)[C@@]2(O)[C@@H](C=C(CO)C[C@]3(O)C(=O)C(C)=C[C@@H]23)[C@@H]2C(C)(C)[C@]12OC(=O)CCC", "note": "[PBt2, phorbol 12,13, dibutyrate, reference compound]", "values": [
      {"measurement": "inhibition of [125I]GRP binding by other mitogens and neuropeptides", "setting": "bombesin/GRP receptor", "result": "not inhibited"}
    ]},
    {"compound": "vasopressin [reference compound]", "values": [
      {"measurement": "inhibition of [125I]GRP binding by other mitogens and neuropeptides", "setting": "bombesin/GRP receptor", "result": "not inhibited"}
    ]},
    {"compound": "insulin", "values": [
      {"measurement": "inhibition of [125I]GRP binding by other mitogens and neuropeptides", "setting": "bombesin/GRP receptor", "result": "not inhibited"}
    ]},
    {"compound": "Arg Pro Lys Pro Gln Gln Phe Phe Gly Leu Met NH2 [substance P, tachykinin with minimal structural homology with bombesin, reference compound]", "values": [
      {"measurement": "inhibition of [125I]GRP binding by other mitogens and neuropeptides", "setting": "bombesin/GRP receptor", "result": "not inhibited"}
    ]},
    {"compound": "EGF: epidermal growth factor", "values": [
      {"measurement": "inhibition of [125I]GRP binding by other mitogens and neuropeptides", "setting": "bombesin/GRP receptor", "result": "not inhibited"}
    ]},
    {"compound": "DArg Dpro Lys Pro Gln Gln DTrp Phe DTrp Leu Leu NH2 [peptide A, [DArg1, DPro2, DTrp7,9, Leu11] substance P]", "values": [
      {"measurement": "effect on [125I]GRP binding (Table III)", "setting": "bombesin/GRP receptor", "result": "reversibly blocks"},
      {"measurement": "effect on growth of H69 cells", "setting": "H69 SCLC cell line", "result": "suppressed"},
      {"measurement": "effect on DNA synthesis stimulated by PDGF, EGF, phorbol esters and c-AMP-increasing agents (Table III)", "setting": "Swiss 3T3 cells [1]", "result": "is not affected"},
      {"measurement": "effect on increase in c-fos and c-myc expression (Table III)", "setting": "[2]", "result": "reversibly blocks"},
      {"measurement": "effect on activation of Na+/K+ pump (Table III)", "setting": "Na+/K+ pump", "result": "reversibly blocks"},
      {"measurement": "effect on 80K phosphorylation (Table III)", "setting": "[3]", "result": "reversibly blocks"},
      {"measurement": "effect on stimulation of DNA synthesis by bombesin-like peptides (Table III)", "setting": "[4]", "result": "reversibly blocks"},
      {"measurement": "effect on EGF transmodulation (Table III)", "setting": "EGF receptor", "result": "reversibly blocks"},
      {"measurement": "effect on Ca2+ mobilization (Table III)", "setting": "Ca2+ mobilization", "result": "reversibly blocks"},
      {"measurement": "effect on stimulation of DNA synthesis by vasopressin (Table III)", "setting": "[5]", "result": "reversibly blocks"},
      {"measurement": "effect on cross-linking of [125I]GRP to the Mr 75,000-85,000 glycoprotein (Table III)", "setting": "[6]", "result": "reversibly blocks"},
      {"measurement": "effect on secretory effects of bombesin in pancreatic acinar cells", "setting": "pancreatic acinar cells", "result": "block the secretory effects of bombesin"}
    ]},
    {"compound": "vasoactive intestinal peptide [VIP, reference compound]", "values": [
      {"measurement": "inhibition of [125I]GRP binding by other mitogens and neuropeptides", "setting": "bombesin/GRP receptor", "result": "not inhibited"}
    ]},
    {"compound": "PDGF", "values": [
      {"measurement": "inhibition of [125I]GRP binding by other mitogens and neuropeptides", "setting": "bombesin/GRP receptor", "result": "not inhibited"}
    ]},
    {"compound": "pGlu Gin Arg Leu Gly Asn Gin Trp Ala Val Gly His Leu Met NH2 [bombesin, tetradecapeptide first isolated from amphibian skin]", "values": [
      {"measurement": "EC50", "setting": "Swiss 3T3 cells [7]; absence of other growth-promoting agents, ref Rozengurt & Sinnett-Smith, 1983, read-out: bombesin concentration giving half-maximal effect on DNA synthesis", "result": 1, "unit": "nM"},
      {"measurement": "EC50", "setting": "Swiss 3T3 cells [7]; in the presence of insulin, ref Zachary & Rozengurt, 1985a, read-out: bombesin concentration required to produce a half-maximal response (DNA synthesis) with insulin", "result": 0.3, "unit": "nM"}
    ]}
  ]
}
